From patent publication US20080261945A1, “Compounds Having Activity at Nk3 Receptor and Uses Thereof in Medicine” (SMITHKLINE BEECHAM CORPORATION, priority 2004, published 2008)
pKi: −log10 of the molar value.

Target: T1, NK3 receptor (Homo sapiens, UniProt P29371)
T1 construct: expressed in transfected cells; host or cells: CHO cell lines (plasma membrane preparation)
T1 sequence (P29371 1-465): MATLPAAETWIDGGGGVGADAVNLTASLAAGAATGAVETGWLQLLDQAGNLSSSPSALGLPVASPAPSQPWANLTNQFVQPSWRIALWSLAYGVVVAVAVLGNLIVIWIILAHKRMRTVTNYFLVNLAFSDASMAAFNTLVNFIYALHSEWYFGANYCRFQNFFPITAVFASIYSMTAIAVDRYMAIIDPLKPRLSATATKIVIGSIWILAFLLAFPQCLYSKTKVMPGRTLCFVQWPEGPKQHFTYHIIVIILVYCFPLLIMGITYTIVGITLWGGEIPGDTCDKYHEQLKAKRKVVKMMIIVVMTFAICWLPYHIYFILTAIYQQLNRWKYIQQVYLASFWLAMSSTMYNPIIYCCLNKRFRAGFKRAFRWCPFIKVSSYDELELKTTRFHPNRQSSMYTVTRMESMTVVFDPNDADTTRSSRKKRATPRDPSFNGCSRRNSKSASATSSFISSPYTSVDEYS
Assay: NK3 binding affinity, scintillation proximity assay (SPA)
Settings: 125I [MePhe7]-NKB; plasma membrane from CHO cell lines expressing NK3 receptors
Experimental: The NK3 binding affinity of the compounds of the invention was determined using the following scintillation proximity assay (SPA) (see H. M. Sarau et al, J. Pharmacol. Experimental Therapeutics 1997, 281(3), 1303-1311; H. M. Sarau et al, J. Pharmacol. Experimental Therapeutics 2000, 295(1), 373-381; G. A. M. Giardina et al J. Med. Chem. 1999, 42, 1053-1065). Polystyrene Leadseeker WGA-SPA beads (Amersham Biosciences) were mixed with plasma membrane prepared from CHO cell lines expressing NK3 receptors in a bead/membrane ratio of 20:1 (w/w) in assay buffer (75 mM Tris pH 7.8, 75 mM NaCl, 4 mM MnCl2, 1 mM EDTA, 0.05% Chaps, 1 mM PMSF). The mixture was placed on ice for 20 minutes to allow the formation of membrane/bead complex before BSA was added to a final concentration of 1%. After another 20 minutes incubation on ice, the bead/membrane complex was washed twice and suspended in assay buffer. ^125I [MePhe7]-NKB was then added to the bead/membrane complex. […] After 2-3 hours incubation at room temperature with shaking, the plates were spun for 2 min at 1100 rpm and measured in Viewlux imager (PerkinElmer) for 5 minutes with a 618-nm filter. Inhibition of the radioactive ligand binding to the NK3 receptor was measured by the reduction of signal. pKi was calculated using Kd of the radioactive ligand determined in a separate experiment.

pKi: 8.20
SMILES: CC[C@H](NC(=O)c1c(COC[C@@H]2CCCN2C)c(-c2ccccc2)nc2ccccc12)c1ccccc1 [Example 1, 3-[({[(2S)-1-Methyl-2-pyrrolidinyl]methyl}oxy)methyl]-2-phenyl-N-[(1S)-1-phenylpropyl]-4-quinolinecarboxamide]
